Experiment [1] deals with T1, Protein cereblon/Histone acetyltransferase p300 (Homo sapiens, UniProt Q09472+Q96SW2). The experiment can be described thus: PROTAC activity at CRBN/p300 in human SK-HEP1 cells assessed as increase in protein ubiquitination at 2 uM incubated for 24 hrs by immunoblotting analysis (reference value: 100%). The class given is cell-based. (In western blotting, separated proteins are transferred to a membrane and probed.)

The target of experiment [2] is T1, Protein cereblon/Histone acetyltransferase p300. Nature of the experiment: PROTAC activity at CRBN/p300 in human SK-HEP1 cells assessed as induction of p300 protein degradation by measuring residual activity at 1 uM incubated for 1 hrs by immunoblotting analysis (reference value: 100%). The class given is cell-based.
Experiment [3] has the same target. Nature of the experiment: PROTAC activity at CRBN/p300 in human SK-HEP1 cells assessed as induction of p300 protein degradation at 1 uM incubated for 24 hrs relative to control. The class given is cell-based.
For experiment [4], the target named is Protein cereblon/CREB-binding protein (Homo sapiens) (UniProt Q92793+Q96SW2). Nature of the experiment: PROTAC activity at CRBN/CBP in human SK-HEP1 cells assessed as induction of […] protein degradation by measuring residual activity at 2 uM incubated for 24 hrs by immunoblotting analysis (reference value: 100%). It counts as cell-based.
For experiment [5], the target named is T1, Protein cereblon/Histone acetyltransferase p300. The experiment can be described thus: PROTAC activity at CRBN/p300 in human SK-HEP1 cells assessed as induction of p300 protein degradation by measuring residual activity at 100 nM incubated for 24 hrs by immunoblotting analysis (reference value: 100%). It counts as cell-based.
For experiment [6] the target is unchanged. Nature of the experiment: PROTAC activity at CRBN/p300 in human SK-HEP1 cells assessed as increase in protein ubiquitination at 2 uM pretreated with MG132 at 1 uM followed by compound treatment and further incubated for 24 hrs by immunoblotting analysis (reference value: 100%). It counts as cell-based.
Experiment [7] shares this target. The experiment can be described thus: PROTAC activity at CRBN/p300 in human SK-HEP1 cells with siRNA mediated CRBN knockdown assessed as induction of p300 degradation by measuring residual activity at 1 uM by immunoblotting analysis relative to control. It counts as cell-based.
For experiment [8] the target is unchanged. The experiment can be described thus: PROTAC activity at CRBN/p300 in human SK-HEP1 cells assessed as induction of p300 protein degradation by measuring residual activity at 2 uM incubated for 24 hrs by immunoblotting analysis (reference value: 100%). The class given is cell-based.
A short description of experiment [9]: Antiproliferative activity against human JHH7 cells assessed as inhibition of cell growth incubated for 5 days by CCK-8 assay. It counts as functional, cell-based. The settings on record: JHH7, 120 h. A general note: Formazan colour is commonly taken as a measure of viable cells.
The subject of experiment [10] is Mus musculus. Nature of the experiment: In vivo PROTAC activity at CRBN/p300 in nude mouse xenografted with human SK-HEP1 cells assessed as reduction in p300 protein level in tumor at 50 mg/kg, ip measured after 24 hrs by immunoblotting analysis. It counts as functional, organism-based. A general note: A xenograft is tissue or cells of one species grown in another, often human tumour cells in immunodeficient mice.

Experiment [11] concerns SK-HEP1. The experiment can be described thus: Inhibition of colony formation in human SK-HEP1 cells at 1 uM incubated for 14 days with compound containing media replacement for every 3 days by crystal violet staining based assay relative to control. The settings on record: SK-HEP1, 336 h, time 14 day. It counts as functional.
The subject of experiment [12] is SK-HEP1. Nature of the experiment: Induction of apoptosis in human SK-HEP1 cells incubated for 72 hrs by Annexin V-FITC/PI staining based flow cytometry analysis. It counts as functional, cell-based. Conditions: dose 0.5-2 µM.

Calls of active or inactive are those of the source. The rule behind the calls is not given here. A value given as a limit tells only on which side of the number the result lay.

T1 sequence (Q09472 2-2414 limits assumed): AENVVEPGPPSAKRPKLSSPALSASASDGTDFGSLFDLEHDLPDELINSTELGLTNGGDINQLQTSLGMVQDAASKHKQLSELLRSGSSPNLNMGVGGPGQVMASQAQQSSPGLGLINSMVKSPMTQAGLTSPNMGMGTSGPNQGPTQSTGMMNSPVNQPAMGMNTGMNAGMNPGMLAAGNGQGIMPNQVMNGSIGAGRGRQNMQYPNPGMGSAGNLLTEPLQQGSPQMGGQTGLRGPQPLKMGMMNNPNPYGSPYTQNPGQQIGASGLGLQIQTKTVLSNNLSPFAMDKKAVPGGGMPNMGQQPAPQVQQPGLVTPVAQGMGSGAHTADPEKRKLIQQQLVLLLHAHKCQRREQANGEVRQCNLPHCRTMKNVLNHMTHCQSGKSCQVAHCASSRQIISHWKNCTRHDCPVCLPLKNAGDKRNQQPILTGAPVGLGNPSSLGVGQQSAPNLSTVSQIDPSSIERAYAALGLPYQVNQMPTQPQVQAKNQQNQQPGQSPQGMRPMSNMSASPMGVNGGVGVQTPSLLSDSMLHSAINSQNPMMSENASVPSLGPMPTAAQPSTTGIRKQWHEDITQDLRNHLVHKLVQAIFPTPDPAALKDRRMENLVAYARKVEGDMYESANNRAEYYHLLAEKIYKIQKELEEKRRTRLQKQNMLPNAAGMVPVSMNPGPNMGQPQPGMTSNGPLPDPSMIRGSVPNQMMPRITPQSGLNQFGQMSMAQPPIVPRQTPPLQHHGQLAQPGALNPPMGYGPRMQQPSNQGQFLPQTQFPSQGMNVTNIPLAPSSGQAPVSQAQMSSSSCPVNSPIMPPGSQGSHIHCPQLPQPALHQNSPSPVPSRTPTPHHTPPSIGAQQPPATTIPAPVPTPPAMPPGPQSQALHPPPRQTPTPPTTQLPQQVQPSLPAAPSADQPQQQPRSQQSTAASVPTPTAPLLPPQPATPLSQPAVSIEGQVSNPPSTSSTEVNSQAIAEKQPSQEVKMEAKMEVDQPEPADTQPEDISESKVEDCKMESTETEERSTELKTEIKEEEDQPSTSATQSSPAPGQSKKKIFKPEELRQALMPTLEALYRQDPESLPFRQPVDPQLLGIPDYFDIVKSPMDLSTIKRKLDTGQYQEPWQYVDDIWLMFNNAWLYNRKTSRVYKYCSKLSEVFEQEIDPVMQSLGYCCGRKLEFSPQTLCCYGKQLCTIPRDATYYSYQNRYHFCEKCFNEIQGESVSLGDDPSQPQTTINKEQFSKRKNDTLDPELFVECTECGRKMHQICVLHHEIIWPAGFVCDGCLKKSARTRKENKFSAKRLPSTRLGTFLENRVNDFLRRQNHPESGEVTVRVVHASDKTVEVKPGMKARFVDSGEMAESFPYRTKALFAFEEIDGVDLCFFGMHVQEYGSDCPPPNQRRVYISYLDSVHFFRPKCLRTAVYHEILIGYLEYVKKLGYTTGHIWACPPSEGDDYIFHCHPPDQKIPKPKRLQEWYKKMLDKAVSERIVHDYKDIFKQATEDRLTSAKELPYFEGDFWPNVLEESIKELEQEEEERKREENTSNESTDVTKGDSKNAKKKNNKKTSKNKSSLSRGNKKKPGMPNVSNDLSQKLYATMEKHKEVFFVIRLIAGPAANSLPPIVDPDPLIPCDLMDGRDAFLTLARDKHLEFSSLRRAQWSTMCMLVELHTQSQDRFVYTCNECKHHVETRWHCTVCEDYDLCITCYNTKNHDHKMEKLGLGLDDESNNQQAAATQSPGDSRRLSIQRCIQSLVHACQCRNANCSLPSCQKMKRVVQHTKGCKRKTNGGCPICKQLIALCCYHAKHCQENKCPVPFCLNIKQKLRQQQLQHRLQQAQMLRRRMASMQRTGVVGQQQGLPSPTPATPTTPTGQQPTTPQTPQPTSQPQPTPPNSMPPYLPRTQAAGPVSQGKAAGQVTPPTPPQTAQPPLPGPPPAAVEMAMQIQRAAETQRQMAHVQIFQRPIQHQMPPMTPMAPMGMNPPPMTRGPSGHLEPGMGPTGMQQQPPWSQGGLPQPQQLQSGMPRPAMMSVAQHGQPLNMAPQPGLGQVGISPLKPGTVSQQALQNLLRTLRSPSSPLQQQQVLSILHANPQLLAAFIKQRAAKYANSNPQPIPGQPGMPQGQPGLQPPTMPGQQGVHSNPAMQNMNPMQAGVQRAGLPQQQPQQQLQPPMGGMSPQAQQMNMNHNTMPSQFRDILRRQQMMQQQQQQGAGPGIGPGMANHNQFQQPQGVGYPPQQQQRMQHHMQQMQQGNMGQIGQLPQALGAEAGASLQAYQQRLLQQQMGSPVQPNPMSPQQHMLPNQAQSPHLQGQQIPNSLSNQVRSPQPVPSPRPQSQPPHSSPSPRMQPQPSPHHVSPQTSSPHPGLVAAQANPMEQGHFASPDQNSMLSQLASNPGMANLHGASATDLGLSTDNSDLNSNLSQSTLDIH
T1 sequence (Q96SW2 whole entry partner): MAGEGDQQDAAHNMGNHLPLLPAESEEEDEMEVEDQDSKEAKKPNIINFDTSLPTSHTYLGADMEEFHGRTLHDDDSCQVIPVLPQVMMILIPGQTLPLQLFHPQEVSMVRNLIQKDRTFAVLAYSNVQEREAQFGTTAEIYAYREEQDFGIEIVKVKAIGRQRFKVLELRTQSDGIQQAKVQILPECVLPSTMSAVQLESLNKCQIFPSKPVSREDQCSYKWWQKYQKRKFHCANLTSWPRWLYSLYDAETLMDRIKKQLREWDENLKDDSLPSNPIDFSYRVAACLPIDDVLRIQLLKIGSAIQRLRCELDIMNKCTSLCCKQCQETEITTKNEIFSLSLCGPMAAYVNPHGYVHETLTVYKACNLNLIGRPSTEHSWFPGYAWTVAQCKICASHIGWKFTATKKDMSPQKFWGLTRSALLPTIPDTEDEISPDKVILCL

For `Cc1noc(C)c1-c1ccc2c(c1)nc([C@@H]1CCCC(=O)N1c1ccc(F)c(F)c1)n2C1CCN(C2CN(c3ccc4c(c3)C(=O)N(C3CCC(=O)NC3=O)C4=O)C2)CC1` (some centres not stated), the Activity in experiment [1] turned out to be 125%; in [2], 78%; in experiment [3], 47%; in experiment [4], 89%; in [5], 61%; in experiment [6], 114%. The results for the Activity in [7], in [8] and in experiment [12] were 78%, 62% and “Dose-Dependent Effect”, respectively. Moreover, the IC50 (usually the concentration that gives 50% inhibition) in experiment [9] stood at 447 nM. Further, in [10], the result was Active. The inhibition – broadly, the percentage by which the read-out fell short of the control – at 1 µM in experiment [11] is greater than 70%.

The values above are taken from ChEMBL document CHEMBL5528046, “Discovery of Novel PROTAC Degraders of p300/CBP as Potential Therapeutics for Hepatocellular Carcinoma” (J Med Chem, 2024).
